Settings: Liquid, Vibrating tube method

C=CCCCCC [1-heptene]
Settings | mass density [kg/m3]
283.52 K, 15000 kPa | 718.3
283.52 K, 20000 kPa | 722.2
283.52 K, 25000 kPa | 725.9
283.52 K, 30000 kPa | 729.4
283.52 K, 35000 kPa | 732.9
283.52 K, 40000 kPa | 736.1
283.52 K, 55000 kPa | 745.3
283.53 K, 100 kPa | 705.5
283.53 K, 500 kPa | 705.9
283.53 K, 1000 kPa | 706.4
283.53 K, 3000 kPa | 708.2
283.53 K, 5000 kPa | 710
283.53 K, 10000 kPa | 714.3
283.53 K, 45000 kPa | 739.3
283.53 K, 50000 kPa | 742.4
283.53 K, 60000 kPa | 748.2
283.53 K, 80000 kPa | 759
283.53 K, 90000 kPa | 763.9
283.54 K, 70000 kPa | 753.8
283.54 K, 100000 kPa | 768.7
293.45 K, 100 kPa | 697
293.45 K, 500 kPa | 697.4
293.45 K, 1000 kPa | 697.9
293.45 K, 5000 kPa | 701.8
293.45 K, 20000 kPa | 714.8
293.45 K, 25000 kPa | 718.7
293.45 K, 30000 kPa | 722.4
293.45 K, 35000 kPa | 726
293.45 K, 55000 kPa | 739
293.45 K, 60000 kPa | 742
293.45 K, 70000 kPa | 747.8
293.45 K, 80000 kPa | 753.2
293.45 K, 90000 kPa | 758.3
293.45 K, 100000 kPa | 763.1
293.46 K, 3000 kPa | 699.9
293.46 K, 10000 kPa | 706.4
293.46 K, 15000 kPa | 710.7
293.46 K, 40000 kPa | 729.4
293.46 K, 45000 kPa | 732.8
293.46 K, 50000 kPa | 736
303.37 K, 100 kPa | 688.4
303.37 K, 500 kPa | 688.9
303.37 K, 55000 kPa | 732.8
303.37 K, 100000 kPa | 757.7
303.38 K, 1000 kPa | 689.5
303.38 K, 3000 kPa | 691.6
303.38 K, 5000 kPa | 693.6
303.38 K, 10000 kPa | 698.5
303.38 K, 15000 kPa | 703.1
303.38 K, 20000 kPa | 707.4
303.38 K, 25000 kPa | 711.5
303.38 K, 30000 kPa | 715.4
303.38 K, 35000 kPa | 719.2
303.38 K, 40000 kPa | 722.8
303.38 K, 45000 kPa | 726.2
303.38 K, 50000 kPa | 729.5
303.38 K, 60000 kPa | 735.9
303.38 K, 70000 kPa | 741.8
303.38 K, 80000 kPa | 747.4
303.38 K, 90000 kPa | 752.6
313.29 K, 100 kPa | 680.6
313.3 K, 500 kPa | 681.1
313.3 K, 5000 kPa | 686.2
313.3 K, 20000 kPa | 700.9
313.3 K, 25000 kPa | 705.2
313.3 K, 30000 kPa | 709.3
313.3 K, 35000 kPa | 713.3
313.3 K, 40000 kPa | 717
313.3 K, 45000 kPa | 720.6
313.3 K, 50000 kPa | 724
313.3 K, 55000 kPa | 727.4
313.3 K, 60000 kPa | 730.6
313.3 K, 70000 kPa | 736.8
313.3 K, 80000 kPa | 742.6
313.3 K, 90000 kPa | 748
313.3 K, 100000 kPa | 753.1
313.31 K, 1000 kPa | 681.8
313.31 K, 3000 kPa | 684
313.31 K, 10000 kPa | 691.3
313.31 K, 15000 kPa | 696.3
323.18 K, 100 kPa | 670.5
323.18 K, 500 kPa | 671
323.18 K, 1000 kPa | 671.6
323.18 K, 3000 kPa | 674.1
323.18 K, 10000 kPa | 682
323.18 K, 25000 kPa | 696.6
323.18 K, 30000 kPa | 700.9
323.18 K, 35000 kPa | 705
323.18 K, 40000 kPa | 708.9
323.18 K, 45000 kPa | 712.7
323.18 K, 50000 kPa | 716.3
323.18 K, 55000 kPa | 719.7
323.18 K, 60000 kPa | 723.1
323.18 K, 70000 kPa | 729.6
323.18 K, 80000 kPa | 735.5
323.19 K, 5000 kPa | 676.4
323.19 K, 15000 kPa | 687.1
323.19 K, 20000 kPa | 692
323.19 K, 90000 kPa | 741.1
323.19 K, 100000 kPa | 746.4
333.04 K, 100 kPa | 661.5
333.04 K, 500 kPa | 662
333.04 K, 1000 kPa | 662.7
333.05 K, 3000 kPa | 665.3
333.05 K, 5000 kPa | 667.9
333.05 K, 10000 kPa | 673.8
333.05 K, 15000 kPa | 679.3
333.05 K, 20000 kPa | 684.5
333.05 K, 25000 kPa | 689.3
333.05 K, 30000 kPa | 693.8
333.05 K, 35000 kPa | 698.1
333.05 K, 40000 kPa | 702.2
333.05 K, 45000 kPa | 706.2
333.05 K, 50000 kPa | 709.9
333.05 K, 55000 kPa | 713.5
333.05 K, 60000 kPa | 717
333.05 K, 70000 kPa | 723.7
333.05 K, 80000 kPa | 729.9
333.05 K, 90000 kPa | 735.7
333.05 K, 100000 kPa | 741.1
342.91 K, 100 kPa | 652.7
342.91 K, 500 kPa | 653.3
342.91 K, 1000 kPa | 654
342.91 K, 3000 kPa | 656.9
342.91 K, 15000 kPa | 671.8
342.91 K, 30000 kPa | 687.1
342.91 K, 35000 kPa | 691.7
342.92 K, 5000 kPa | 659.6
342.92 K, 10000 kPa | 666
342.92 K, 20000 kPa | 677.4
342.92 K, 25000 kPa | 682.4
342.92 K, 40000 kPa | 696
342.92 K, 45000 kPa | 700.1
342.92 K, 50000 kPa | 703.9
342.92 K, 55000 kPa | 707.7
342.92 K, 60000 kPa | 711.3
342.92 K, 70000 kPa | 718.3
342.92 K, 80000 kPa | 724.6
342.92 K, 90000 kPa | 730.6
342.92 K, 100000 kPa | 736.2
352.8 K, 100 kPa | 644.3
352.8 K, 500 kPa | 644.9
352.8 K, 40000 kPa | 690
352.8 K, 45000 kPa | 694.3
352.8 K, 50000 kPa | 698.4
352.8 K, 70000 kPa | 713.2
352.8 K, 80000 kPa | 719.7
352.8 K, 90000 kPa | 725.9
352.8 K, 100000 kPa | 731.7
352.81 K, 1000 kPa | 645.7
352.81 K, 3000 kPa | 648.8
352.81 K, 5000 kPa | 651.6
352.81 K, 10000 kPa | 658.4
352.81 K, 15000 kPa | 664.7
352.81 K, 20000 kPa | 670.5
352.81 K, 25000 kPa | 675.8
352.81 K, 30000 kPa | 680.9
352.81 K, 35000 kPa | 685.6
352.81 K, 55000 kPa | 702.3
352.81 K, 60000 kPa | 706
362.68 K, 100 kPa | 633.6
362.68 K, 500 kPa | 634.3
362.68 K, 100000 kPa | 725.7
362.69 K, 1000 kPa | 635
362.69 K, 3000 kPa | 638.5
362.69 K, 5000 kPa | 641.7
362.69 K, 20000 kPa | 661.9
362.69 K, 30000 kPa | 672.8
362.69 K, 35000 kPa | 677.8
362.69 K, 40000 kPa | 682.5
362.69 K, 45000 kPa | 687
362.69 K, 50000 kPa | 691.2
362.69 K, 55000 kPa | 695.2
362.69 K, 60000 kPa | 699.1
362.69 K, 70000 kPa | 706.6
362.69 K, 80000 kPa | 713.4
362.69 K, 90000 kPa | 719.7
362.7 K, 10000 kPa | 649.1
362.7 K, 15000 kPa | 655.8
362.7 K, 25000 kPa | 667.6
